Measurements: patent publication US6472348B1, “Pyridone derivatives and herbicides” (Kumiai Chemical Industry Co., Ltd., priority 1996, dated 2002)

system: pale smartweed (Po); assay: Test Example 6: crop plant selectivity by upland field soil treatment (soybean), herbicidal effects; type: in vivo; parameters: scale not given here; settings: dose 6.3 g ai/10a, 21st day after application
Description: (§1) (Test on Crop Plant Selectivity by Upland Field Soil Treatment)
(§2) In a plastic pot (surface area: 600 cm^2) filled with sand, soybean (Gl), Diaitaria ciliaris (Di), green foxtail (Se), Johnsongrass (So), pale smartweed (Po), slender amaranth (Am), common lambsquarters (Ch) and China jute (Ab) were sown and covered with soil. […] The plants were then cultured in a green house, and the evaluation of the herbicidal effects and phytotoxicity was conducted on the 21st day after the application in accordance with the standards as identified in Table 47. Symbol—represents “not tested”.

| SMILES | Herbicidal effects Po |
| --- | --- |
| Cn1c(C(F)(F)F)ccc(-c2cc(OCC(F)F)c(Cl)cc2F)c1=O [1-173] | 5 |

system: wheat (Tr); assay: Test Example 5: crop plant selectivity by upland field soil treatment (wheat), phytotoxicity; type: in vivo; parameters: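 grade of crop injury; 5 = at least 90%; 4 = 70 to 90%; 3 = 50 to 70%; 2 = 30 to 50%; 1 = 10 to 30%; 0 = under 10%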; settings: dose 6.3 g ai/10a, 21st day after application
Description: as §1
(§3) In a plastic pot (surface area: 600 cm^2) filled with sand, wheat (Tr), Diaitaria ciliaris (Di), green foxtail (Se), pale smartweed (Po), slender amaranth (Am), common lambsquarters (Ch) and China jute (Ab) were sown and covered with soil. […] The plants were then cultured in a green house, and the evaluation of the herbicidal effects and phytotoxicity was conducted on the 21st day after the application in accordance with the standards as identified in Table 47. Symbol—represents “not tested”.

| SMILES | Phytotoxicity Tr |
| --- | --- |
| Cn1c(C(F)(F)F)ccc(-c2cc(OCC(F)F)c(Cl)cc2F)c1=O [1-173] | 1 |

system: green foxtail (Se); assay: Test Example 4: crop plant selectivity by upland field soil treatment (cotton), herbicidal effects; type: in vivo; parameters: scale not given here; settings: dose 6.3 g ai/10 a, evaluated 21st day after application
Description: as §1
(§4) In a plastic pot (surface area: 600 cm^2) filled with sand, cotton (Go), Diaitaria ciliaris (Di), green foxtail (Se), pale smartweed (Po), slender amaranth (Am), common lambsquarters (Ch) and China jute (Ab) were sown and covered with soil. […] The plants were then cultured in a green house, and the evaluation of the herbicidal effects and phytotoxicity was conducted on the 21st day after the application in accordance with the standards as identified in Table 47. Symbol—represents “not tested”.

| SMILES | Herbicidal effects Se |
| --- | --- |
| Cn1c(C(F)(F)F)ccc(-c2cc(OCC(F)F)c(Cl)cc2F)c1=O [1-173] | 5 |

system: common lambsquarters (Ch); assay: as above; type: in vivo; parameters: scale not given here; settings: dose 6.3 g ai/10 a, evaluated 21st day after application
Description: as §1, §4

| SMILES | Herbicidal effects Ch |
| --- | --- |
| Cn1c(C(F)(F)F)ccc(-c2cc(OCC(F)F)c(Cl)cc2F)c1=O [1-173] | 5 |

system: China jute (Ab); assay: as above; type: in vivo; parameters: scale not given here; settings: dose 6.3 g ai/10 a, evaluated 21st day after application
Description: as §1, §4

| SMILES | Herbicidal effects Ab |
| --- | --- |
| Cn1c(C(F)(F)F)ccc(-c2cc(OCC(F)F)c(Cl)cc2F)c1=O [1-173] | 5 |

system: slender amaranth (Am); assay: as above; type: in vivo; parameters: scale not given here; settings: dose 6.3 g ai/10 a, evaluated 21st day after application
Description: as §1, §4

| SMILES | Herbicidal effects Am |
| --- | --- |
| Cn1c(C(F)(F)F)ccc(-c2cc(OCC(F)F)c(Cl)cc2F)c1=O [1-173] | 5 |

system: pale smartweed (Po); assay: as above; type: in vivo; parameters: scale not given here; settings: dose 6.3 g ai/10 a, evaluated 21st day after application
Description: as §1, §4

| SMILES | Herbicidal effects Po |
| --- | --- |
| Cn1c(C(F)(F)F)ccc(-c2cc(OCC(F)F)c(Cl)cc2F)c1=O [1-173] | 5 |

system: soybean (Gl); assay: Test Example 6: crop plant selectivity by upland field soil treatment (soybean), phytotoxicity; type: in vivo; parameters: scale not given here; settings: dose 6.3 g ai/10a, 21st day after application
Description: as §1, §2

| SMILES | Phytotoxicity Gl |
| --- | --- |
| Cn1c(C(F)(F)F)ccc(-c2cc(OCC(F)F)c(Cl)cc2F)c1=O [1-173] | 1 |

system: common lambsquarters (Ch); assay: Test Example 3: herbicidal effects by upland field foliage treatment; type: in vivo; parameters: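 grade of growth control; 5 = at least 90%; 4 = 70 to 90%; 3 = 50 to 70%; 2 = 30 to 50%; 1 = 10 to 30%; 0 = under 10%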; settings: 100 g of the active ingredient per 10 ares, evaluated on the 14th day after treatment
Procedure, shortened: (§5)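 Weeds sown in sand-filled pots and grown 2 weeks in a greenhouse before foliage treatment. Plants then kept in the greenhouse; herbicidal effect scored on day 14 after treatment against a graded standard scale.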

| SMILES | Herbicidal effects Ch |
| --- | --- |
| Cn1c(C(F)(F)F)ccc(-c2cc(OCC(F)F)c(Cl)cc2F)c1=O [1-173] | 5 |

system: slender amaranth (Am); assay: as above; type: in vivo; parameters: scale not given here; settings: 100 g of the active ingredient per 10 ares, evaluated on the 14th day after treatment
Procedure, shortened: as §5

| SMILES | Herbicidal effects Am |
| --- | --- |
| Cn1c(C(F)(F)F)ccc(-c2cc(OCC(F)F)c(Cl)cc2F)c1=O [1-173] | 5 |

system: Diaitaria ciliaris (Di); assay: as above; type: in vivo; parameters: scale not given here; settings: 100 g of the active ingredient per 10 ares, evaluated on the 14th day after treatment
Procedure, shortened: as §5

| SMILES | Herbicidal effects Di |
| --- | --- |
| Cn1c(C(F)(F)F)ccc(-c2cc(OCC(F)F)c(Cl)cc2F)c1=O [1-173] | 5 |

system: rice flatsedge (Ci); assay: as above; type: in vivo; parameters: scale not given here; settings: 100 g of the active ingredient per 10 ares, evaluated on the 14th day after treatment
Procedure, shortened: as §5

| SMILES | Herbicidal effects Ci |
| --- | --- |
| Cn1c(C(F)(F)F)ccc(-c2cc(OCC(F)F)c(Cl)cc2F)c1=O [1-173] | 5 |

system: pale smartweed (Po); assay: as above; type: in vivo; parameters: scale not given here; settings: 100 g of the active ingredient per 10 ares, evaluated on the 14th day after treatment
Procedure, shortened: as §5

| SMILES | Herbicidal effects Po |
| --- | --- |
| Cn1c(C(F)(F)F)ccc(-c2cc(OCC(F)F)c(Cl)cc2F)c1=O [1-173] | 5 |

system: barnyardgrass (Ec); assay: as above; type: in vivo; parameters: scale not given here; settings: 100 g of the active ingredient per 10 ares, evaluated on the 14th day after treatment
Procedure, shortened: as §5

| SMILES | Herbicidal effects Ec |
| --- | --- |
| Cn1c(C(F)(F)F)ccc(-c2cc(OCC(F)F)c(Cl)cc2F)c1=O [1-173] | 5 |

system: green foxtail (Se); assay: Test Example 5: crop plant selectivity by upland field soil treatment (wheat), herbicidal effects; type: in vivo; parameters: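 grade of growth control; 5 = at least 90%; 4 = 70 to 90%; 3 = 50 to 70%; 2 = 30 to 50%; 1 = 10 to 30%; 0 = under 10%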; settings: dose 6.3 g ai/10a, 21st day after application
Description: as §1, §3

| SMILES | Herbicidal effects Se |
| --- | --- |
| Cn1c(C(F)(F)F)ccc(-c2cc(OCC(F)F)c(Cl)cc2F)c1=O [1-173] | 5 |

system: common lambsquarters (Ch); assay: as above; type: in vivo; parameters: scale not given here; settings: dose 6.3 g ai/10a, 21st day after application
Description: as §1, §3

| SMILES | Herbicidal effects Ch |
| --- | --- |
| Cn1c(C(F)(F)F)ccc(-c2cc(OCC(F)F)c(Cl)cc2F)c1=O [1-173] | 5 |

system: China jute (Ab); assay: as above; type: in vivo; parameters: scale not given here; settings: dose 6.3 g ai/10a, 21st day after application
Description: as §1, §3

| SMILES | Herbicidal effects Ab |
| --- | --- |
| Cn1c(C(F)(F)F)ccc(-c2cc(OCC(F)F)c(Cl)cc2F)c1=O [1-173] | 5 |

system: slender amaranth (Am); assay: as above; type: in vivo; parameters: scale not given here; settings: dose 6.3 g ai/10a, 21st day after application
Description: as §1, §3

| SMILES | Herbicidal effects Am |
| --- | --- |
| Cn1c(C(F)(F)F)ccc(-c2cc(OCC(F)F)c(Cl)cc2F)c1=O [1-173] | 5 |

system: pale smartweed (Po); assay: as above; type: in vivo; parameters: scale not given here; settings: dose 6.3 g ai/10a, 21st day after application
Description: as §1, §3

| SMILES | Herbicidal effects Po |
| --- | --- |
| Cn1c(C(F)(F)F)ccc(-c2cc(OCC(F)F)c(Cl)cc2F)c1=O [1-173] | 5 |

system: cotton (Go); assay: Test Example 4: crop plant selectivity by upland field soil treatment (cotton), phytotoxicity; type: in vivo; parameters: scale not given here; settings: dose 6.3 g ai/10 a, evaluated 21st day after application
Description: as §1, §4

| SMILES | Phytotoxicity Go |
| --- | --- |
| Cn1c(C(F)(F)F)ccc(-c2cc(OCC(F)F)c(Cl)cc2F)c1=O [1-173] | 1 |
